From US11247984B2, “Uracil containing compounds” (CV6 Therapeutics (NI) Limited, priority 2017, dated 2022)

What was measured:
[1] = molecular target: T1, recombinant human deoxyuridine nucleotidohydrolase (dUTPase) (Homo sapiens, UniProt P33316); experiment: fluorescence-based dUTPase inhibition assay; assay type: biochemical; settings: for % relative inhibition vs. positive control: mean across three concentrations, typically 100, 50 and 25 μmol/L, compared to in-run positive control
T1 construct: made in house
T1 sequence (P33316 1-164 isoform P33316-2): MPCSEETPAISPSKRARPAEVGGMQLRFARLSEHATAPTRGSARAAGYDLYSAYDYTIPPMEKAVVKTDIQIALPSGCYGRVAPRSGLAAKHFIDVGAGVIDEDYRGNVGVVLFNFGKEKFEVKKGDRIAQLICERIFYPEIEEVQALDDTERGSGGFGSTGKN
Text: Recombinant human deoxyuridine nucleotidohydrolase (dUTPase) is expressed and purified as described in Ladner R D, Carr S A, Huddleston M J, McNulty D E, Caradonna S J. J Biol Chem. 1996 Mar. 29; 271(13):7752-7. All drugs stocks are aliquoted and diluted as appropriate prior to use. The oligonucelotide primer, templates and fluorophore- and quencher-labeled detection probes are synthesized by Integrated DNA Technologies (Coralville, Iowa), subjected to polyacrylamide gel electrophoresis purification and reconstituted in Omnipur sterile nuclease-free water (EMD Chemicals USA, Gibbstown N.J.) at a stock concentration of 100 μmol/L. The two non-emissive (dark) quenching molecules incorporated into the detection probes include the Iowa black fluorescein quencher (IBFQ; absorption max 531 nm) and ZEN (non-abbreviation; absorption max 532 nm). The fluorescent label utilized is 6-FAM (5′-carboxyfluorescein; excitation max.=494 nm, emission max.=520 nm). Probes are further diluted to a working stock of 10 μmol/L and aliquoted to avoid repeated freeze/thaw cycles. AmpliTaq Gold DNA Polymerase, GeneAmp 10×PCR Buffer 2, MgCl2 and MicroAmp Optical 96-well Reaction Plates are purchased from Applied Biosystems (Carlsbad, Calif.). dNTPs are purchased individually at stock concentrations of 100 mmol/L from New England Biolabs at HPLC-certified >99% purity (Ipswich, Mass.).
Reaction mixtures contained primer, probe and template at an equimolar final concentration of 0.4 μmol/L. Magnesium chloride (MgCl2) is included at a final concentration of 2 mmol/L. Non-limiting dNTPs are included in the reaction mix in excess at a final concentration of 100 μmol/L (dUTP/dTTP is excluded). AmpliTaq Gold DNA polymerase is added at 0.875 U/reaction, 2.5 μl of 10×PCR buffer 2 added and nuclease-free ddH2O added to a final reaction volume of 25 μl. For dUTP inhibition analysis, the volume of ddH2O is further modified to accommodate an additional 1 μl of dUTPase (10 ng/μt) and 1 μl of inhibitor or DMSO control. Thermal profiling and fluorescence detection is performed using a customized thermal program on board a Roche Lightcycler LC480 Instrument II. For analysis of dNTPs, the thermal profile consisted of an 8 min 37° C. step followed by a 10 min 95° C. step to ‘hot-start’ the Taq polymerase and a primer extension time of up to 30 min at 60° C. Raw fluorescence spectra for 6-FAM is measured at specified time intervals to follow assay progression on board a Roche LightCycler 480 Software Version 1.5 and exported and analyzed in Microsoft Excel (Microsoft, Redmond Wash.) and Prism (GraphPad Software, La Jolla Calif.). Fluorescence values for blank reactions (limiting dNTP omitted) are subtracted to give normalized fluorescence units (NFU) to account for background fluorescence.
Test compounds are screened in a fluorescence-based assay. The assay employs a DNA polymerase-based approach utilizing an oligonucleotide template with 3 distinct regions: a 3′ primer binding region, a mid-template dUTP/thymidine triphosphate (TTP) detection region and a 5′ 6-[…] (FAM)-labeled probe binding region that incorporates a black hole quenching moiety. During the reaction, the probe and primer hybridize to the oligonucleotide template to form the template:primer:probe complex. When Taq polymerase binds to the primer in the TPP complex and dUTP is present, successful extension of the nascent strand occurs and the inherent 5′ to 3′ exonuclease activity of Taq polymerase cleaves and displaces the 6-FAM-labeled probe in a 5′ to 3′ direction, releasing the 6-FAM fluorophore from its proximity to the […]. This displacement effectively disrupts the Forster resonance energy transfer (FRET) and the resulting fluorescence detected upon excitation is directly proportional to the amount of the dUTP available in the assay for incorporation. […]

[2] = system: colorectal (HCT116 and SW620) cell line models; experiment: MTS growth inhibition assay; assay type: cell-based; settings: 5-FU between 0 and 100 μmol/L
Procedure: The Cell Titer AQueous MTS assay (Promega) is carried out according to the manufacturers guidelines. […] The combination effect is determined by the combination index (CI) method utilizing Calcusyn software (Biosoft, Ferguson, Mo.). Fraction affected (FA) is calculated from the percent growth inhibition: FA=[…]. CI values <1, synergism; 1-1.2, additive and >1.2, antagonism.
Test compounds are evaluated for their antitumor activity in colorectal cancer cells using the MTS growth inhibition assay. HCT116 and SW620 cells are exposed to increasing concentrations of each agent for 72 hours and growth inhibition is directly compared to vehicle-treated controls. The NSCLC cell lines A549 and H1299 are exposed to increasing concentrations of each agent for 72 hours and growth inhibition is directly compared to vehicle-treated controls.
MTS growth inhibition assays are performed to evaluate the effectiveness of the test compounds alone and in combination with the fluoropyrimidine thymidylate synthase (TS) inhibitor 5-fluorouracil (5-FU) at inhibiting the growth of colorectal (HCT116 and SW620) cell line models. […] Simultaneous treatment with increasing concentrations of 5-FU and a test compound at fixed concentrations of 25 μmol/L is determined.

[3] = system: colorectal (HCT116), breast (MCF-7) and non-small cell lung (H1299, A549, H358 and H460) cell line models; experiment: colony forming assay; assay type: cell-based; settings: FUdR between 0.5 and 2.5 μmol/L; all cell lines evaluated
Procedure: Colony forming assay showing the ability of colon (SW620, HCT116), non-small cell lung (A549, H460, H1299 and H358) and breast (MCF7) cancer cells to survive and proliferate following transient 24 hour exposure to test compounds, FUdR and combinations are determined. Specifically, cells are seeded at densities between 50 and 100 cells/well in 24-well plates. Twenty-four hours later, cells are treated with increasing concentrations of a rtest compound, a fixed dose of FUdR and combinations of these. After 24 hours, drug is removed, cells are rinsed and allowed to outgrow for 10-14 days. At the conclusion of the outgrowth, cells are fixed in 60% ice cold methanol and stained with 0.1% crystal violet, scanned and counted. Data is presented as percentage of untreated controls (mean±SD). Fraction affected and combination indexes are calculated according to the method of Chou and Talalay where <1 is indicative of a synergistic drug interaction.
Colony forming assays are performed to evaluate the effectiveness of test compounds alone and in combination with the fluoropyrimidine thymidylate synthase (TS) inhibitor fluorodeoxyuridine (FUdR) at reducing cancer cell viability in colorectal (HCT116), breast (MCF-7) and non-small cell lung (H1299, A549, H358 and H460) cell line models. […]

% relative inhibition vs. positive control [1]	Structure (SMILES)	other results
145%	CC(C)[C@@H](NS(=O)(=O)CC/C=C/CN1CCC(=O)NC1=O)c1ccc(F)c(OCC2CC2)c1 [Example 79, (R,E)-N-(1-(3-(cyclopropylmethoxy)-4-fluorophenyl)-2-methylpropyl)-5-(2,4-dioxotetrahydropyrimidin-1(2H)-yl)pent-3-ene-1-sulfonamide]	–
174%	C[C@@H](NS(=O)(=O)CCCOCN1CCC(=O)NC1=O)c1cccc(OCC2CC2)c1 [Example 82, (R)—N-(1-(3-(cyclopropylmethoxy)phenyl)ethyl)-3-((2,4-dioxotetrahydropyrimidin-1(2H)-yl)methoxy)propane-1-sulfonamide]	–
–	O=c1[nH]cc(F)c(=O)[nH]1 [Example 5-FU, 5-fluorouracil]	growth inhibition [2]: dose-dependent increases in growth inhibition
103%	CC(C)[C@@H](NS(=O)(=O)CCCCCN1CCC(=O)NC1=O)c1ccc(F)c(OCC2CC2)c1 [Example 80, (R)—N-(1-(3-(cyclopropylmethoxy)-4-fluorophenyl)-2-methylpropyl)-5-(2,4-dioxotetrahydropyrimidin-1(2H)-yl)pentane-1-sulfonamide]	–
–	O=c1[nH]c(=O)n([C@H]2C[C@H](O)[C@@H](CO)O2)cc1F [FUdR, fluorodeoxyuridine]	colonies formed [3]: dose-dependent decreases in colonies formed
166%	CC[C@@H](NS(=O)(=O)CCCOCN1CCC(=O)NC1=O)c1ccc(F)c(OCC2CC2)c1 [Example 83, (R)—N-(1-(3-(cyclopropylmethoxy)-4-fluorophenyl)propyl)-3-((2,4-dioxotetrahydropyrimidin-1(2H)-yl)methoxy)propane-1-sulfonamide]	–
214%	C[C@@H](NS(=O)(=O)CCCCCn1ccc(=O)[nH]c1=O)c1ccc(F)c(OCC2CC2)c1 [Example 84, (R)—N-(1-(3-(cyclopropylmethoxy)-4-fluorophenyl)ethyl)-5-(2,4-dioxo-3,4-dihydropyrimidin-1(2H)-yl)pentane-1-sulfonamide]	IC50 ([1]; recombinant dUTPase, 8 min at 37° C.): 300 nM

Structure (SMILES)	% relative inhibition vs. positive control [1]	other results
C[C@H](NS(=O)(=O)CCCCCn1ccc(=O)[nH]c1=O)c1ccc(F)c(OCC2CC2)c1 [Example 86, (S)—N-(1-(3-(cyclopropylmethoxy)-4-fluorophenyl)ethyl)-5-(2,4-dioxo-3,4-dihydropyrimidin-1(2H)-yl)pentane-1-sulfonamide]	54%	–
CC(C)COc1cc(C(C)(C)NS(=O)(=O)CC/C=C/CN2CCC(=O)NC2=O)ccc1F [Example 81, (E)-5-(2,4-dioxotetrahydropyrimidin-1(2H)-yl)-N-(2-(4-fluoro-3-isobutoxyphenyl)propan-2-yl)pent-3-ene-1-sulfonamide]	80%	–
